Data from patent US5547976A, “Further indole derivatives with antiviral activity” (Burroughs Wellcome Co., priority 1992, dated 1996).

Legend:
[1] = tested on: Human cytomegalovirus (HCMV), CMV strain AD 169; assay: CMV assay (plaque reduction assay, MRC5 cells); format: cell-based; conditions: Human betaherpesvirus 5, HCMV strain AD 169
Method: Human cytomegalovirus (HCMV) was assayed in monolayers of either MRC5 cells (human embryonic lung) in multiwell trays. The strandard CMV strain AD 169 was used. Activity of compounds is determined in the plaque reduction assay, in which a cell monolayer is infected with a suspension of HCMV, and then overlaid with nutrient […] in the form of a gel to ensure that there is no spread of virus throughout the culture. A range of concentrations of compound of known molarity was incorporated in the nutrient agarose overlay. Plaque numbers at each concentration of drug are expressed as percentage of the control and a dose-response curve is drawn.

[2] = Cell toxicity (cell growth inhibition assay, MTT uptake); format: cell-based; conditions: monkey, 50% inhibition of cell viability at 96 hours, Vero cells, read-out: Cytoxicity CClD50
Method: Cell toxicity is assessed in cell growth inhibition assay. Subconfluent cultures of Vero cells grown on 96-well microtiter dishes are exposed to different dilutions of drug, and cell viability determined daily on replicate cultures using uptake of a tetrazolium dye (MTT). The concentration required for 50% inhibition of cell viability at 96 hours is termed CCID50.

SMILES	IC50 [1] [µM]	CC50 at 96 h [2] [µM]
O=C1NC(=O)c2c1c1c3cc(Cl)ccc3[nH]c1c1[nH]c3ccc(Cl)cc3c21 [12,13-Dihydro-3,9-dichloro-5H-indolo[2,3-a]pyrrolo[3,4-c]carbazole-5,7(6H)-dione]	0.16	> 125
O=C1c2c(c3c4ccccc4[nH]c3c3[nH]c4ccccc4c23)C(=O)N1Cc1cc(C(F)(F)F)cc(C(F)(F)F)c1 [12,13-Dihydro-6-(3,5-di-trifluoromethylphenylmethyl)-5H-indolo [2,3a]pyrrolo[3,4c]carbazole-5,7(6H)-dione]	5.7	> 125
O=C1c2c(c3c4ccccc4[nH]c3c3[nH]c4ccccc4c23)C(=O)N1Cc1cccc(C(F)(F)F)c1 [12,13-Dihydro-6-(3-trifluoromethylphenylmethyl)-5H-indolo[2,3a]pyrrolo[3,4c]-carbazole-5,7-(6H)-dione]	1.2	> 500
